These results are taken from US11584722B2, “Substituted imidazole salt compounds, preparation method thereof, pharmaceutical composition thereof and application thereof” (Xiamen Vivohealths Technology Co., Ltd., priority 2017, dated 2023).

This experiment addresses T1, aldolase A (Homo sapiens, UniProt P04075).
T1 sequence (P04075 1-364): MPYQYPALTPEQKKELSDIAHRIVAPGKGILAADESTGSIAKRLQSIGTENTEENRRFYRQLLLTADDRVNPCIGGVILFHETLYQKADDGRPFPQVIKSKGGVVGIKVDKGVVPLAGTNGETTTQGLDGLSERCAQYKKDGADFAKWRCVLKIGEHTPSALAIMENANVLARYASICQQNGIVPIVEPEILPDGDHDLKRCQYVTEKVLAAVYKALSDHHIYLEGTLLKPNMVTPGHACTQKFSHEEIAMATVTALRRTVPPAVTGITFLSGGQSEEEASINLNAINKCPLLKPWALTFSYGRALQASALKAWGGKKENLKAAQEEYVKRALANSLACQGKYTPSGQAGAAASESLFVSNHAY
Kind of experiment: Activity assay at protein level: aldolase-catalyzed degradation of fructose-1,6-biphosphate, coupled triose phosphate isomerase/glycerol-3-phosphate dehydrogenase method. It counts as biochemical. The settings on record: test concentration of compound 100 μM, FBP 500 μM, 37° C., read-out: Inhibition rate (%) of aldolase activity. The method, then:
The inhibition on aldolase activity of a compound was evaluated by its inhibition on the rate of aldolase-catalyzed degradation of the substrate fructose-1,6-biphosphate (FBP). Method for conjugation of triose phosphate isomerase/glycerol-3-phosphate dehydrogenase [Racker, E. (1952) J. Biol. Chem. 196, 347-351] was specifically used for biochemical activity assay (Table 3).
The specific method was as follows:
(1) About 250 ng of aldolase A was dissolved in 30 μL of water, added to the bottom of a 96-well plate of quartz, and a compound (dissolved in DMSO, not exceeding 1% of the total reaction volume) was added to the aldolase A solution, followed by shaking and mixing, and incubation for 30 min at room temperature; […]
(2) 70 μL of an enzyme reaction system (its formulation was given below) was added, and immediately put into a microplate reader (SpectraMax M5, Molecular Devices), to carry out reaction at 37° C. At the same time, the absorbance at 340 nm was measured every 30 s, and a total of 61 absorbance values were obtained for each well. The absorbance value linearly changed with time, and the slope was the enzyme activity of aldolase in the well. The specific value was calculated by SoftMax Pro 5.4.1; […]
a. enzyme reaction buffer (50 mM TEA-HCl, pH 7.4, 10 mM EDTA) […]
d. triose phosphate isomerase (about 20 U) e. glycerol-3-phosphate dehydrogenase (about 2 U)
(3) Two parallel experiments were set for each group, with DMSO having a final concentration of 1% as the blank control, and the final concentration of compound being 100 μM.
`CCn1cc[n+](Cc2cc(F)ccc2OC)c1C` [IA-6]: the inhibition at 100 µM was determined as 83.4%.
Under `CCn1cc[n+](Cc2c(Cl)cccc2Cl)c1C` [IA-7] stands 88.4%; under `CCCn1cc[n+](Cc2cc(F)ccc2OC)c1C` [IA-10], 0.06%.
The figure for `Cc1n(C(C)C)cc[n+]1Cc1c(Cl)cccc1Cl` [IA-14] is 5.06%; for `CCCCCCCCCCCCCCCCn1c(C)[n+](Cc2c(F)cccc2Cl)c2ccccc21` [IIA-1] it is 49.9%.

One may read the inhibition as the relative decrease from the control value, in per cent.
